# According to patent US6534530B1, “Antipicornaviral compounds and compositions, their pharmaceutical uses, and materials for their synthesis” (Agouron Pharmaceuticals, Inc., priority 1999, dated 2003):
# Assays:
# [1] = target: T1, recombinant rhinovirus 3C protease, serotype 14 (Human rhinovirus 14, UniProt P03303); experiment: Inhibition of rhinovirus 3C protease (FRET assay), serotype 14; type: biochemical
# T1 construct: Recombinant rhinovirus 3C proteases; made in house
# Experimental: (§1) Stock solutions (50 mM, in DMSO) of various compounds were prepared; dilutions were in the same solvent. Recombinant rhinovirus 3C proteases (see Birch et al., “Purification of recombinant human rhinovirus 14 3C protease expressed in Escherichia coli,” Protein Expr. Pur. (1995), vol. 6(5), 609-618) from serotypes 14, 16, and 2 were prepared by the following standard chromatographic procedures: (1) ion exchange using Q Sepharose Fast Flow from Pharmacia; (2) affinity chromatography using Affi-Gel Blue from Biorad; and (3) sizing using Sephadex G-100 from Pharmacia. Each assay sample contained 2% DMSO, 50 mM tris pH 7.6, 1 mM EDTA, a test compound at the indicated concentration, approximately 1 μM substrate, and 50-100 nM protease. The kobs/I values were obtained from reactions initiated by addition of enzyme rather than substrate. RVP activity was measured in the fluorescence resonance energy transfer assay. The substrate was (N-terminal) DABCYL-([…]-EDANS. In the uncleaved peptide, the EDANS fluorescence was quenched by the proximal DABCYL moiety. When the peptide was cleaved, the quenching was relieved, and activity was measured as an increase in fluorescence signal. The tabulated data in the column designated kobs/[I] were measured from progress curves in enzyme start experiments.
# [2] = system: HRV-89; experiment: Antirhinoviral H1-HeLa cell culture assay (XTT), HRV-89; type: cell-based, human rhinovirus; settings: Rhinovirus A, HRV89, HRV-89, H1-HeLa cells
# Text: (§2) (1989), vol. 81, 577-586.
# [3] = system: H1-HeLa cells; experiment: Cytotoxicity in mock-infected H1-HeLa cells (antirhinoviral assay, XTT)
# [4] = target: T2, rhinovirus 3C protease, HRV-89 (Human rhinovirus A serotype 89, UniProt P07210); experiment: Inhibition of rhinovirus 3C protease (FRET assay), serotype 89; type: biochemical, human rhinovirus 89; settings: HRV-89 3C protease
# T2 construct: Recombinant rhinovirus 3C proteases
# [5] = target: T3, recombinant rhinovirus 3C protease, serotype 16 (Human rhinovirus 16, UniProt Q82122); experiment: Inhibition of rhinovirus 3C protease (FRET assay), serotype 16; type: biochemical; settings: HRV-16 3C protease
# T3 construct: Recombinant rhinovirus 3C proteases; made in house
# Experimental: as §1
# [6] = in vitro; settings: human, mock-infected H1-HeLa cells
# [7] = system: HRV-14; experiment: Antirhinoviral H1-HeLa cell culture assay (XTT), HRV-14; type: cell-based, human rhinovirus
# [8] = target: T4, recombinant rhinovirus 3C protease, serotype 2 (Human rhinovirus 2, UniProt P04936); experiment: Inhibition of rhinovirus 3C protease (FRET assay), serotype 2; type: biochemical; settings: HRV-2 3C protease
# T4 construct: Recombinant rhinovirus 3C proteases; made in house
# Experimental: as §1
# [9] = system: HRV-16; experiment: Antirhinoviral H1-HeLa cell culture assay (XTT), HRV-16; type: cell-based; settings: Human rhinovirus sp., HRV16, HRV-16, H1-HeLa cells
# Text: as §2
# [10] = system: ECHO 11; experiment: Anti-echoviral cell culture assay (XTT), ECHO 11 in MRC-5 cells; type: cell-based, echovirus 11; settings: Enterovirus B, MRC5, 96 h; ECHO-11, MRC-5 cells, four days
# Experimental: (§3) Echovirus type 11 (ECHO 11) was purchased from ATCC (Rockville, Md.). Virus stocks were propagated and antiviral assays were performed in MRC-5 cells (ATCC).
# [11] = Cytotoxicity in uninfected MRC-5 cells (anti-echoviral assay, XTT); type: cell-based; settings: human, ECHO-11 row
# Experimental: as §3
# [12] = Cytotoxicity in uninfected H1-HeLa cells (anticoxsackieviral assay, XTT); type: cell-based; settings: human
# [13] = system: HRV-10; experiment: Antirhinoviral H1-HeLa cell culture assay (XTT), HRV-10; type: cell-based; settings: Human rhinovirus sp., HRV10, HRV-10, H1-HeLa cells
# Text: as §2
# [14] = system: CVB3; experiment: Anticoxsackieviral cell culture assay (XTT), CVB3; type: cell-based, coxsackievirus B3; settings: Enterovirus B, 24 h; CVB3, H1-HeLa cells, m.o.i. 0.075, one day
# [15] = system: CAV-21; experiment: Anticoxsackieviral cell culture assay (XTT), CAV-21; type: cell-based, coxsackievirus A21; settings: Enterovirus C, 48 h; CAV-21, H1-HeLa cells, m.o.i. 0.025, two days
# [16] = system: HRV-1A; experiment: Antirhinoviral H1-HeLa cell culture assay (XTT), HRV-1A; type: cell-based, human rhinovirus; settings: Rhinovirus A, HRV1A, H1-HeLa cells
# Text: as §2
# [17] = Rhinovirus B, HRV14, HRV-14, H1-HeLa cells
# T2 sequence (P07210 1522-1704): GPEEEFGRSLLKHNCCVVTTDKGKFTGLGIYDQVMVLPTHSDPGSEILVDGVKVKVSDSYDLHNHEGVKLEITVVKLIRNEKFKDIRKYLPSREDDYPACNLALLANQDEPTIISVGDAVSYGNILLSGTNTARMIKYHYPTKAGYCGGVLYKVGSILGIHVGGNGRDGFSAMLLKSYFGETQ
# T3 sequence (Q82122 1511-1693): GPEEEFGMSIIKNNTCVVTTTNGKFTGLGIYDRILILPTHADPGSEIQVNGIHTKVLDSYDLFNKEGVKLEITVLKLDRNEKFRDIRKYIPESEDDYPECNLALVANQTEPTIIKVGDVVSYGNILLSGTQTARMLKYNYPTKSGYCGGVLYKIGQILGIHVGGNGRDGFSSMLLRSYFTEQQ
# T1 sequence (P03303 1538-1719): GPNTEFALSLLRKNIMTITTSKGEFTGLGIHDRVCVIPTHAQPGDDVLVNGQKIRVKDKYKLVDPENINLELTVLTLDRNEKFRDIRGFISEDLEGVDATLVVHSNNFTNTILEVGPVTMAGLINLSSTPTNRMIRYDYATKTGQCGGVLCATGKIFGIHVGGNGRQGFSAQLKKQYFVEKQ
# T4 sequence (P04936 1508-1690): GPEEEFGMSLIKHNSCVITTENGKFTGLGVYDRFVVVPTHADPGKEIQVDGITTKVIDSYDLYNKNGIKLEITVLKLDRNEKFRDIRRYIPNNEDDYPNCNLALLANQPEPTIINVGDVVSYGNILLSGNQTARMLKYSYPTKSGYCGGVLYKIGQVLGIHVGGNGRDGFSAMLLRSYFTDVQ
SMILES,Ki [1],CC50 at 2 days [6],"EC50 [7, 17]",further results
"C#CC(=O)[C@H](CNC(C)=O)NC(=O)[C@H](Cc1ccccc1)NC(=O)[C@H](CC(C)C)NC(=O)OCc1ccccc1 [Compound 14, Cbz-L-Leu-L-Phe-L-(N-Ac-amino-Ala)-C≡CH]",0.065 µM,> 100 µM,> 100 µM,EC50 [2]: > 100 µM; CC50 ([3]; HRV-89 row): > 100 µM; Ki [4]: 0.76 µM; Ki [5]: 0.322 µM; Ki [8]: 0.124 µM
"COCC(=O)[C@H](CNC(C)=O)NC(=O)[C@H](Cc1ccccc1)NC(=O)[C@H](CC(C)C)NC(=O)OCc1ccccc1 [Compound 19, Cbz-L-Leu-L-Phe-L-(N-Ac-amino-Ala)-CH2OCH3]",27 µM,,,Ki [4]: 20.6 µM; Ki [5]: 27 µM; Ki [8]: 12.9 µM
"CC(C)C[C@H](NC(=O)OCc1ccccc1)C(=O)N[C@@H](Cc1ccccc1)C(=O)N[C@@H](C[C@@H]1CCNC1=O)C(=O)c1nccs1 [Compound 22, Cbz-L-Leu-L-Phe-L-[(S)-Pyrrol-Ala]-2-Thiazole]",0.7 µM,240 µM,7.9 µM,melting point: 83 to 85 °C
"Cc1cc(CCCCCCCOc2ccc(C3=N[C@@H](C)CO3)cc2)on1 [WIN52084, reference compound]",,,,"CC50 ([3]; HRV-14): > 10 µM; EC50 ([7]; HRV-14, H1-HeLa cells): 0.07 µM"
"CC(=O)NC[C@H](NC(=O)[C@H](Cc1ccccc1)NC(=O)[C@H](CC(C)C)NC(=O)OCc1ccccc1)C(=O)c1nccs1 [Compound 13, Cbz-L-Leu-L-Phe-L-(N-Ac-amino-Ala)-2-Thiazole]",24 µM,56 µM,> 56 µM,Ki [5]: 4 µM; Ki [8]: 13.3 µM
"CC(=O)NC[C@H](NC(=O)[C@H](Cc1ccccc1)NC(=O)[C@H](CC(C)C)NC(=O)OCc1ccccc1)C(=O)c1nc2ccccc2s1 [Compound 9, Cbz-L-Leu-L-Phe-L-(N-Ac-amino-Ala)-2-Benzthiazole]",1.7 µM,25 µM,> 25 µM,Ki [4]: 0.48 µM; Ki [5]: 0.31 µM; EC50 [9]: > 25 µM; Ki [8]: 0.9 µM
"Cc1cc(C(=O)N[C@H](C(=O)N[C@@H](Cc2ccc(F)cc2)C(=O)N[C@@H](C[C@@H]2CCNC2=O)C(=O)c2nc3ccccc3s2)C(C)C)no1 [Compound 28, (5-Methylisoxazole-3-carboxyl)-L-Val-L-Phe(4-F)-L-[(S)-Pyrrol-Ala]-2-Benzthiazole]",0.0045 µM,251 µM,0.335 µM,EC50 [10]: 0.821 µM; CC50 at 4 days [11]: 251 µM; CC50 at 2 days ([12]; CAV-21): 251 µM; CC50 at 1 day ([12]; CVB3): 251 µM; EC50 [13]: 0.253 µM; EC50 [14]: 5.79 µM; EC50 [15]: 4.67 µM; EC50 [16]: 0.337 µM
"COCC#CC(=O)[C@H](CNC(C)=O)NC(=O)[C@H](Cc1ccccc1)NC(=O)[C@H](CC(C)C)NC(=O)OCc1ccccc1 [Compound 17, Cbz-L-Leu-L-Phe-L-(N-Ac-amino-AIa)-C≡CCH2OCH3]",0.075 µM,> 100 µM,> 100 µM,
"CC(C)C[C@H](NC(=O)OCc1ccccc1)C(=O)N[C@@H](Cc1ccccc1)C(=O)N[C@@H](C[C@@H]1CCNC1=O)C(=O)c1ccccc1 [Compound 26, Cbz-L-Leu-L-Phe-L-[(S)-Pyrrol-Ala]-Ph]",3.22 µM,> 10 µM,> 10 µM,
"CC(=O)NC[C@H](NC(=O)[C@H](Cc1ccccc1)NC(=O)[C@H](CC(C)C)NC(=O)OCc1ccccc1)C(=O)COCCc1ccccc1 [Compound 18, Cbz-L-Leu-L-Phe-L-(N-Ac-amino-Ala)-CH2OCH2CH2Ph]",9.1 µM,20 µM,> 20 µM,Ki [4]: 14 µM; Ki [5]: 6.7 µM; Ki [8]: 11 µM
"CC(=O)[C@H](C[C@@H]1CCNC1=O)NC(=O)[C@H](Cc1ccccc1)NC(=O)[C@H](CC(C)C)NC(=O)OCc1ccccc1 [Compound 24, Cbz-L-Leu-L-Phe-L-[(S)-Pyrrol-Ala]-CH3]",0.65 µM,> 10 µM,> 10 µM,
"C=CC(=O)[C@H](CNC(C)=O)NC(=O)[C@H](Cc1ccccc1)NC(=O)[C@H](CC(C)C)NC(=O)OCc1ccccc1 [Compound 15, Cbz-L-Leu-L-Phe-L-(N-Ac-amino-Ala)-CH=CH2]",0.098 µM,> 100 µM,> 100 µM,
"CC(C)C[C@H](NC(=O)OCc1ccccc1)C(=O)N[C@@H](Cc1ccccc1)C(=O)N[C@@H](C[C@@H]1CCNC1=O)C(=O)c1nc2ccccc2s1 [Compound 21, Cbz-L-Leu-L-Phe-L-[(S)-Pyrrol-Ala]-2-Benzthiazole]",0.065 µM,> 320 µM,3.2 µM,melting point: 108 to 111 °C
"CC(C)C[C@H](NC(=O)OCc1ccccc1)C(=O)N[C@@H](Cc1ccccc1)C(=O)N[C@@H](CCC(N)=O)C(=O)c1nc2ccccc2s1 [Compound 20, Cbz-L-Leu-L-Phe-L-Gln-2-Benzthiazole]",3.5 µM,> 100 µM,17.4 µM,
"CC(=O)NC[C@H](NC(=O)[C@H](Cc1ccccc1)NC(=O)[C@H](CC(C)C)NC(=O)OCc1ccccc1)C(=O)COC(=O)c1c(C)cc(C)cc1C [Compound 3, Cbz-L-Leu-L-Phe-L-(N-Ac-amino-Ala)-CH2OC(O)-(2,4,6-trimethylphenyl)]",,25 µM,> 25 µM,"kobs/[I] ([1]; HRV-14 3C protease, progress curves in enzyme start experiments): slow"
"Cc1cc(CCCCCCCOc2ccc(C3=NCCO3)cc2)on1 [WIN51711, reference compound]",,,,"CC50 ([3]; HRV-14): > 60 µM; EC50 ([7]; HRV-14, H1-HeLa cells): 0.78 µM"
"Cc1cc(CCCCCOc2c(Cl)cc(C3=NCCO3)cc2Cl)on1 [WIN54954, reference compound]",,,,"CC50 ([3]; HRV-14): > 63 µM; EC50 ([7]; HRV-14, H1-HeLa cells): 2.13 µM"
